According to PubChem BioAssay AID2060483 (Molecular Pharmacology Branch, DTP, NCI, 2025):
Where “and” joins values, the source holds several entries; their conditions need not be identical. Equal entries are not always repeated. Each block holds one compound with its values, some of them ahead of it.

Test system: K24384-001-R-PDC complex spheroids, viability
Assay: Anticancer human tumor K24384-001-R-PDC patient-derived pancreatic adenocarcinoma cell line growth inhibition [GQUAD]
Conditions: for viability, T/C: stronger effect = lower value
Text: DNA G-quadruplex Stabilizer Agents in Combinations in Complex Spheroids
A high-throughput screen of multi-cell type tumor spheroids was designed to identify active combinations of DNA G-quadruplex stabilizer agents and targeted small molecules. Complex spheroids include a stromal component modeled by human endothelial cells (HUVEC) and fibroblasts modeled by human mesenchymal stem cells (MSCs). The concentration ranges selected for each drug and investigational agent were based upon clinically achievable concentrations if the clinical Cmax of the agent was known.
Compounds. The drugs and investigational agents: pidnarulex (CX-5461; NSC782164), APTO-253 (NSC789042), BRACO-19 (NSC847499), peposertib (NSC802822), ceralasertib (NSC780249), elimusertib (NSC800525), camonsertib (NSC841442), AZD-1390 (NSC803789), olaparib (NSC753686), talazoparib (NSC767125), ART-558 (NSC835418), sotorasib (NSC818433), MRTX-1133 (NSC836407), SN-38 (NSC673596), topotecan (NSC609699), etoposide (NSC141540), doxorubicin (NSC123127), gemcitabine (NSC613327), 5-fluorouracil (NSC19893), paclitaxel (NSC125973), vemurafenib (NSC761431), panobinostat (NSC761190), R-306465 (JNJ-16241199; NSC773264), adavosertib (NSC754352), TP-3654 (NSC805149), carboplatin (NSC241240), KSQ-4279 (NSC840948), and staurosporine (NSC755774) were obtained from the National Cancer Institute (NCI) Developmental Therapeutics Program Chemical Repository (34). The FDA-approved anticancer drug set is available from the NCI Developmental Therapeutics Program. […] The stock solutions were prepared in dimethyl sulfoxide (DMSO, Sigma-Aldrich, St. Louis, MO, cat. D2650) at 800-fold the tested concentration and stored at -70 degrees C prior to their use. All drugs and investigational agents were tested over a range starting from a high concentration at or near the clinical Cmax and decreasing in half-log increments. If the clinical Cmax for an agent had not been determined, the highest concentration tested was 10 microM.
2.3 Cell Culture. All cells were maintained in an incubator at 37 degrees C and 5% CO2 with 95% humidity. The PDC lines were cultured according to standard operating procedures established by the NCI PDMR. All PDCs were thawed and cultured in Matrigel-coated flasks prepared with a working solution of 1X Ham's F-12 nutrient mix, without supplementation (Invitrogen, cat. 11765054), 100 U/mL penicillin-streptomycin (Invitrogen, cat. 15140122), and 2.5% Matrigel (Corning Inc., cat. 354248) for the first three passages. The 857933-349-R-J2-PDC line was cultured in 6C/Colon 1B media, which includes advanced DMEM/F-12 (Thermo Fisher Scientific, cat. 12634028), 10 mM HEPES (Thermo Fisher Scientific, cat. 15630080), 1X GlutaMAX supplement (Thermo Fisher Scientific, cat. 35050061), 0.1 mg/mL primocin (InvivoGen, cat. ant-pm-2), 10% defined fetal bovine serum, heat inactivated (HyClone Laboratories Inc., cat. SH30070.03HI), 50% L-WRN conditioned media (ATCC, cat. CRL-3276), 1.25 mM N-Acetyl-L-cysteine (Sigma-Aldrich, cat. A9165), 10 mM nicotinamide (Sigma-Aldrich, cat. N0636), 1X B-27 supplement (Thermo Fisher Scientific, cat. 17504044), 1X N-2 supplement (Thermo Fisher Scientific, cat. 17502048), 10 microM Y-27632 dihydrochloride (Tocris Bioscience, cat. 1254), and 50 ng/mL human EGF recombinant protein (Thermo Fisher Scientific, cat. PHG0311). The 485176-168-R4-J1-PDC line was cultured in Panc media, which includes all 6C/Colon 1B media components plus 100 ng/mL human FGF-10 (Thermo Fisher Scientific, cat. 100-26), 500 nM SB-431542 (Selleckchem, cat. S1067), and gastrin (Tocris, cat. 3006).
[…]

[1] = curve of first compound, second compound 0.0316 µM
[2] = curve of first compound, second compound 0.1 µM
[3] = curve of first compound, second compound 0.316 µM
[4] = curve of first compound, second compound 1 µM
[5] = curve of first compound, second compound 3.16 µM
[6] = curve of first compound, second compound 10 µM
[7] = second compound 0.0316 µM, first compound 0.0316 µM
[8] = second compound 0.0316 µM, first compound 0.1 µM
[9] = second compound 0.0316 µM, first compound 0.316 µM
[10] = second compound 0.0316 µM, first compound 1 µM
[11] = second compound 0.0316 µM, first compound 3.16 µM
[12] = second compound 0.0316 µM, first compound 10 µM
[13] = second compound 0.1 µM, first compound 0.0316 µM
[14] = second compound 0.1 µM, first compound 0.1 µM
[15] = second compound 0.1 µM, first compound 0.316 µM
[16] = second compound 0.1 µM, first compound 1 µM
[17] = second compound 0.1 µM, first compound 3.16 µM
[18] = second compound 0.1 µM, first compound 10 µM
[19] = second compound 0.316 µM, first compound 0.0316 µM
[20] = second compound 0.316 µM, first compound 0.1 µM
[21] = second compound 0.316 µM, first compound 0.316 µM
[22] = second compound 0.316 µM, first compound 1 µM
[23] = second compound 0.316 µM, first compound 3.16 µM
[24] = second compound 0.316 µM, first compound 10 µM
[25] = second compound 1 µM, first compound 0.0316 µM
[26] = second compound 1 µM, first compound 0.1 µM
[27] = second compound 1 µM, first compound 0.316 µM
[28] = second compound 1 µM, first compound 1 µM
[29] = second compound 1 µM, first compound 3.16 µM
[30] = second compound 1 µM, first compound 10 µM
[31] = second compound 3.16 µM, first compound 0.0316 µM
[32] = second compound 3.16 µM, first compound 0.1 µM
[33] = second compound 3.16 µM, first compound 0.316 µM
[34] = second compound 3.16 µM, first compound 1 µM
[35] = second compound 3.16 µM, first compound 3.16 µM
[36] = second compound 3.16 µM, first compound 10 µM
[37] = second compound 10 µM, first compound 0.0316 µM
[38] = second compound 10 µM, first compound 0.1 µM
[39] = second compound 10 µM, first compound 0.316 µM
[40] = second compound 10 µM, first compound 1 µM
[41] = second compound 10 µM, first compound 3.16 µM
[42] = second compound 10 µM, first compound 10 µM
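Further: spheroids exposed to compounds for seven days.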

IC50 [1]: > 10 µM
IC50 [2]: 8.78 µM
IC50 [3]: > 10 µM
IC50 [4]: < 0.0316 µM
IC50 [5]: < 0.0316 µM
IC50 [6]: < 0.0316 µM
SMILES: C=CC(=O)N1CCN(c2nc(=O)n(-c3c(C)ccnc3C(C)C)c3nc(-c4c(O)cccc4F)c(F)cc23)C(C)C1 (stereo not drawn) + Cc1cnc(CNC(=O)c2c(=O)c3ccc(N4CCCN(C)CC4)nc3n3c2sc2ccccc23)cn1
viability, T/C [7]: 79.5%
viability, T/C [8]: 78.9%
viability, T/C [9]: 92.1%
viability, T/C [10]: 88.5%
viability, T/C [11]: 98.4%
viability, T/C [12]: 83.2%
viability, T/C [13]: 54.7%
viability, T/C [14]: 78%
viability, T/C [15]: 53.6%
viability, T/C [16]: 64.6%
viability, T/C [17]: 58.8%
viability, T/C [18]: 48.9%
viability, T/C [19]: 48.3%
viability, T/C [20]: 71.5%
viability, T/C [21]: 64.3%
viability, T/C [22]: 65.5%
viability, T/C [23]: 70.8%
viability, T/C [24]: 49.3%
viability, T/C [25]: 41%
viability, T/C [26]: 52.3%
viability, T/C [27]: 42.5%
viability, T/C [28]: 66.3%
viability, T/C [29]: 59.9%
viability, T/C [30]: 47.7%
viability, T/C [31]: 35.3%
viability, T/C [32]: 48.6%
viability, T/C [33]: 39.6%
viability, T/C [34]: 47.5%
viability, T/C [35]: 47.5%
viability, T/C [36]: 37.5%
viability, T/C [37]: 20.8%
viability, T/C [38]: 23.7%
viability, T/C [39]: 31.4%
viability, T/C [40]: 42%
viability, T/C [41]: 23.3%
viability, T/C [42]: 22.7%

IC50 (curve of compound): 1.64 µM and > 10 µM and 1.5 µM
SMILES: O=c1[nH]cc(F)c(=O)[nH]1
viability, T/C (compound 0.0316 µM): 101% and 113% and 79.9%
viability, T/C (compound 0.1 µM): 71.8% and 95.1% and 98.7%
viability, T/C (compound 0.316 µM): 89.6% and 94.3% and 82.2%
viability, T/C (compound 1 µM): 54.9% and 55.5% and 54.3%
viability, T/C (compound 3.16 µM): 41.3% and 45.8% and 44.6%
viability, T/C (compound 10 µM): 45.5% and 56.4% and 37.8%

IC50 (curve of compound): > 10 µM
SMILES: C=CC(=O)N1CCN(c2nc(=O)n(-c3c(C)ccnc3C(C)C)c3nc(-c4c(O)cccc4F)c(F)cc23)C(C)C1 (stereo not drawn)
viability, T/C (compound 0.0316 µM): 110% and 115% and 96.6%
viability, T/C (compound 0.1 µM): 95.3% and 80% and 113%
viability, T/C (compound 0.316 µM): 105% and 99.4% and 119%
viability, T/C (compound 1 µM): 91.2% and 103% and 99.1%
viability, T/C (compound 3.16 µM): 104% and 116% and 106%
viability, T/C (compound 10 µM): 93% and 80.7% and 94.2%

SMILES: CCCS(=O)(=O)Nc1ccc(F)c(C(=O)c2c[nH]c3ncc(-c4ccc(Cl)cc4)cc23)c1F + CN(C)c1ccc(Nc2c3ccc(NC(=O)CCN4CCCC4)cc3nc3cc(NC(=O)CCN4CCCC4)ccc23)cc1
IC50 [1]: > 10 µM
IC50 [2]: 9.98 µM
IC50 [3]: > 10 µM
IC50 [4]: > 10 µM
IC50 [5]: 9.35 µM
IC50 [6]: 7.84 µM
viability, T/C [7]: 110%
viability, T/C [8]: 102%
viability, T/C [9]: 129%
viability, T/C [10]: 128%
viability, T/C [11]: 138%
viability, T/C [12]: 54%
viability, T/C [13]: 98.5%
viability, T/C [14]: 118%
viability, T/C [15]: 113%
viability, T/C [16]: 124%
viability, T/C [17]: 150%
viability, T/C [18]: 49.8%
viability, T/C [19]: 93.5%
viability, T/C [20]: 114%
viability, T/C [21]: 124%
viability, T/C [22]: 125%
viability, T/C [23]: 144%
viability, T/C [24]: 52%
viability, T/C [25]: 102%
viability, T/C [26]: 105%
viability, T/C [27]: 117%
viability, T/C [28]: 131%
viability, T/C [29]: 154%
viability, T/C [30]: 53.3%
viability, T/C [31]: 92.7%
viability, T/C [32]: 101%
viability, T/C [33]: 97.2%
viability, T/C [34]: 128%
viability, T/C [35]: 140%
viability, T/C [36]: 46%
viability, T/C [37]: 84.3%
viability, T/C [38]: 114%
viability, T/C [39]: 109%
viability, T/C [40]: 149%
viability, T/C [41]: 139%
viability, T/C [42]: 31.3%
